Series [1] concerns L. amazonensis IFLA/BR/1967/PH8 promastigotes. Nature of the series: Antileishmanial microdilution assay (resazurin), promastigotes. The series is classed as cell-based, Leishmania amazonensis. The procedure:
(§1) Leishmania (infantum MHOM/BR/1974/PP75 and L. amazonensis IFLA/BR/1967/PH8 were donated by the Leishmania Type Culture Collection (LTCC) of Oswaldo Cruz Institute/Fiocruz (Rio de Janeiro, Brazil). […] The antileishmanial activity of the sulphonamide NEs was evaluated by the microdilution technique. […] L. amazonensis and L. infantum promastigote forms were harvest at late log phase of growth (96 h), washed twice with PBS and resuspended in fresh culture medium to a final concentration of 5 × 10^6 parasites/ml. […] The minimal inhibitory concentration (MIC) was determined as the lowest concentration capable of inhibiting in vitro growth of the parasites. […] The selective index (SI) for promastigote forms of L. amazonensis and L. infantum was calculated by the ratio between the CC50 for RAW 264.7 macrophages and the IC50 for the parasites.
A general note: Broth dilution looks for growth in wells or tubes with falling amounts of substance.

The test system of series [2] is L. infantum MHOM/BR/1974/PP75 promastigotes. Described as above. Format: cell-based, Leishmania infantum. As to the method:
as §1

The nature of another series: Cytotoxic assay (MTT). The series is classed as cell-based. To be noted: mouse, RAW 264.7 macrophages. As to the method:
RAW 264.7 macrophages were obtained from the National Institute of Metrology, Quality and Technology (Inmetro, Rio de Janeiro, Brazil) and maintained in DMEM medium supplemented with 10% FBS at 37 °C in a 5% controlled CO2 atmosphere. Cell maintenance was performed every 48–72 h, time necessary for cells to achieve confluent monolayers.
Sulphonamide NEs cytotoxicity was performed using tetrazolium dye MTT colorimetric assay. RAW 264.7 macrophages were harvest after confluent monolayer achievement. The cells were washed twice with PBS and a cellular suspension of 10^6 cells/ml was prepared in fresh DMEM culture medium. Aliquots of 100 µl of the cellular suspension were placed into polystyrene 96-well plates, and then incubated at 37 °C in a 5% CO2 atmosphere for 6 h to allow for adherence of macrophages. After this period, the adherent cells were subjected to treatment with several concentrations of the sulphonamide NEs (1–128 µM), and then incubated for additional 48 h. […] Macrophage viability was determined after formazan crystals solubilisation with DMSO followed by the absorbance measurement at 570 nm using a SpectraMax M5 spectrophotometer (Molecular Devices, Los Angeles, CA). The 50% cytotoxic concentrations were calculated by regression analysis using Microsoft Excel 2013 software.

A short description of a further series: Haemolytic assay. The series is classed as cell-based, Human. To be noted: human, human erythrocytes (suspension in PBS), read-out: Haemolysis (%). The procedure: (§2) Haemolytic activity was evaluated as described previously by Ishnava and Shah with a slight modification. Human erythrocytes from healthy individuals were collected in vacuum tubes containing EDTA as anti-coagulant. The erythrocytes were harvested by centrifugation for 10 m at 2500 rpm at 20 °C, and washed three times in PBS. To the pellet, PBS was added to yield a 10% (v/v) erythrocytes/PBS suspension. The 10% suspension was then diluted 1:10 in PBS. Aliquots of 100 µl of erythrocytes suspension was added, in triplicate, to 100 µl of a two-fold dilution series of sulphonamides NEs and amphotericin B (at concentrations of 128, 64, 32, 16, 8, 4, 2, and 1 µM, respectively, in the same buffer) in microtubes. Negative and positive controls were performed by replacing drug dilution with PBS or with 200 µl of […] for the total haemolysis, respectively. The tubes were incubated for 1 h at 37 °C and then centrifuged for 10 min at 2000 rpm at 20 °C. From the supernatant fluid, 150 µl was transferred to a flat-bottomed microtiter plate, and the absorbance was measured spectrophotometrically at 540 nm. Five concentrations are required for HC50 calculation. The following formula was used to find out the percentage of haemolytic activity: [A540 treated sample − A540 of buffer)/(A540 of Triton X-100 − A540 of buffer)] × 100.

The subject of a further series is Human erythrocytes. Kind of series: Haemolytic assay. Format: cell-based. To be noted: human erythrocytes, 1 h, 37 °C. The procedure: as §2
For a further series, the system named is L. donovani. Details: method as in PMID 25825339. The note with it: against L. donovani; cited from earlier work.
On the set-up of series [3]: method as in PMID 25825339. The note with it: cited from earlier work.
Series [4] can be described thus: Dissolution of sulphonamides in clove oil. Format: physicochemical. To be noted: concentration of 5 mg/ml. As to the method: The oil-in-water (O/W) NEs were prepared by high-energy method using an ultrasound processor (Hielscher model UP100H, Hielscher GmbH, Berlin, Germany), according to the method descripted by Senna et al.[31]. Oil phase was prepared by sulphonamides dissolution in the clove oil. An amount of 5 mg of drug was weighted in a microtube and 1 ml of clove oil was added. The tube was agitated for 1 min for obtaining of the drug solution (5 mg/ml). Aqueous phase was prepared by adding 1 g of Pluronic F127® in 8 g of water. Then 1 ml of oil phase (drug dissolved in clove oil) was added to 9 ml of aqueous phase (Pluronic F127 in water) under constant ultrasound homogenisation (amplitude 80%, continuous cycle no. 1) during 5 min in an ice bath at 5 °C to prevent heating of the dispersion. A transparent NE was obtained at a concentration of 500 µg/ml.
The NEs were produced with 10% of oil phase. NEs were prepared also without the drug in order to evaluate the stability, droplet size and PDI. […] Phase separation and precipitation of the drug were not observed, and the NE was considered stable in the concentration of up to 500 µg/ml.

The mark [5] stands for this setting: Leishmania amazonensis, L. amazonensis promastigotes, 120 h.
The mark [6] stands for this setting: Leishmania infantum, L. infantum promastigotes, 120 h.

For orientation: IC50 means the midpoint of a concentration-inhibition curve. By IC90 is commonly meant the concentration needed for an effect of 90%. Higher therefore signals a need for much substance. As a reminder, the CC50 is the concentration that lowers cell viability or growth by half. High values mean better tolerance by the cells, low ones harm at low concentration.

≈ marks a conversion by molar mass, not a printed value. Marks after values point to notes of the source that are not given here.

`C[C@@H]1[C@H](O)[C@@H](C)/C=C/C=C/C=C/C=C/C=C/C=C/C=C/[C@H](O[C@@H]2O[C@H](C)[C@@H](O)[C@H](N)[C@@H]2O)C[C@@H]2O[C@](O)(C[C@@H](O)C[C@@H](O)[C@H](O)CC[C@@H](O)C[C@@H](O)CC(=O)O[C@H]1C)C[C@H](O)[C@H]2C(=O)O` [AMP, amphotericin B]: the “IS50 (selectivity index = CC50/IC50)” value in series [1] (CC50 RAW 264.7 / IC50 L. amazonensis) was 1.78 ± 0.01^b; in series [2] (CC50 RAW 264.7 / IC50 L. infantum), 1.59 ± 0.01^d. The IC50 in series [1] (setting [5]) was 0.61 ± 0.01 µM; in series [2] (setting [6]) it was 0.67 ± 0.1 µM; with L. donovani, 0.214 ± 0.06 mg/L (≈ 0.232 µM). The 90% effect concentration (IC90) was determined as 1.23 ± 0.23 µM in series [1] (setting [5]) and 1.01 ± 0.03 µM in series [2] (setting [6]). Besides, the MIC was 4 µM (≈ 3.7 µg/mL) in series [1] (Leishmania amazonensis, L. amazonensis promastigotes, 120 h, 26 °C, read-out: MIC (minimum inhibitory concentration)) and 4 µM (≈ 3.7 µg/mL) in series [2] (Leishmania infantum, L. infantum promastigotes, 120 h, 26 °C, read-out: MIC (minimum inhibitory concentration)). The compound further gave a CC50 at 48 h in “Cytotoxic assay (MTT)” of 1.07 ± 1.49 µM. The hemolysis at 1 h, 2 µM in “Haemolytic assay” (2 µM) was determined as 1.18 ± 0.31%. In addition, the hemolysis at 1 h, 4 µM in “Haemolytic assay” (4 µM) amounted to 2.01 ± 0.02%. For the same compound, in “Haemolytic assay” (8 µM), the hemolysis at 1 h, 8 µM is 2.09 ± 0.15%. For the same compound, the hemolysis at 1 h, 16 µM in “Haemolytic assay” (16 µM) is 20.8 ± 0.5%. The hemolysis at 1 h, 32 µM in “Haemolytic assay” (32 µM) amounted to 57.8 ± 6.7%. The hemolysis at 1 h, 64 µM in “Haemolytic assay” (64 µM) turned out to be 75.7 ± 5.24%. In addition, the hemolysis at 1 h, 128 µM in “Haemolytic assay” (128 µM) was determined as 100%. In addition, in the series “Haemolytic assay” (256 µM), the hemolysis at 1 h, 256 µM is 100%. In addition, the HC50 in the series with Human erythrocytes is on record as 27.93 ± 1.71^b µM. In series [3], the haemotoxicity is recorded as 69.8%.
As to `NS(=O)(=O)c1ccc(NC(=O)Cc2ccc(Cl)cc2)c(F)c1` [Sulphonamide 3F], in series [4], the “Dissolution in clove oil” value was “easily dissolved”.
The same measure, in the same setting: the value for `NS(=O)(=O)c1ccc(NC(=O)Cc2ccccc2Br)c(F)c1` [Sulphonamide 3G] was “easily dissolved”.
Same read-out and setting: with `NS(=O)(=O)c1ccc(CCNC(=O)Cc2ccccc2Br)cc1` [Sulphonamide 3W] the entry was “easily dissolved”; with `NS(=O)(=O)c1nnc(NC(=O)Cc2ccc(Cl)cc2)s1` [Sulphonamide 5B], “easily dissolved”; with `NS(=O)(=O)c1nnc(NC(=O)Cc2ccccc2Br)s1` [Sulphonamide 5C], “easily dissolved”.
On the same count and under the same terms, with `COc1ccc(CC(=O)Nc2nnc(S(N)(=O)=O)s2)cc1` [Sulphonamide 5D] the entry was “easily dissolved”.
